In ChEMBL document CHEMBL1201862, “PubChem BioAssay data set” (2004):
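1) Cells in 96-well plates. 2) Compound, 48 h, 5 concentrations. 3) Linear interpolation between surrounding doses. 4) Unreached endpoint = highest concentration. Here, GI50 denotes the concentration required for 50% inhibition of growth.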 The source made the active and inactive calls. Cut-off read from the data, not from the text of the source: active = GI50 up to about 1.1 µM and inactive = higher.

Columns and labels:
Experiment in all cases: NCI tumour cell line growth inhibition, 48 h
SF-295 = tested on: SF-295
SF-268 = tested on: SF-268
SF-539 = tested on: SF-539
SK-OV-3 = tested on: SK-OV-3
UACC-62 = tested on: UACC-62
M19-MEL = tested on: M19-MEL
OVCAR-3 = tested on: OVCAR-3
COLO 205 = tested on: COLO 205
NCI-H460 = tested on: NCI-H460
SNB-19 = tested on: SNB-19
SK-MEL-28 = tested on: SK-MEL-28
KM-20L2 = tested on: KM-20L2
IGROV-1 = tested on: IGROV-1
A498 = tested on: A498
HOP-18 = tested on: HOP-18
ACHN = tested on: ACHN
HT-29 = tested on: HT-29
TK-10 = tested on: TK-10
RXF 393 = tested on: RXF 393
KM12 = tested on: KM12
LXFL 529 = tested on: LXFL 529
EKVX = tested on: EKVX
SNB-75 = tested on: SNB-75
LOX IMVI = tested on: LOX IMVI
SW-620 = tested on: SW-620
DLD-1 = tested on: DLD-1
786-0 = tested on: 786-0
SR = tested on: SR
NCI-H23 = tested on: NCI-H23
HCC 2998 = tested on: HCC 2998
HCT-15 = tested on: HCT-15
OVCAR-4 = tested on: OVCAR-4
UACC-257 = tested on: UACC-257
XF498 = tested on: XF498
HCT-116 = tested on: HCT-116
UO-31 = tested on: UO-31
HL-60 = tested on: HL-60
DMS-114 = tested on: DMS-114
M14 = tested on: M14
SK-MEL-5 = tested on: SK-MEL-5
OVCAR-5 = tested on: OVCAR-5
HOP-92 = tested on: HOP-92
U-251 = tested on: U-251
MOLT-4 = tested on: MOLT-4
Malme-3M = tested on: Malme-3M
HOP-62 = tested on: HOP-62
SN12C = tested on: SN12C
CCRF-CEM = tested on: CCRF-CEM
RPMI-8226 = tested on: RPMI-8226
OVCAR-8 = tested on: OVCAR-8
SNB-78 = tested on: SNB-78
DMS-273 = tested on: DMS-273
A549 = tested on: A549
K562 = tested on: K562
NCI-H226 = tested on: NCI-H226
SK-MEL-2 = tested on: SK-MEL-2
NCI-H522 = tested on: NCI-H522
CAKI-1 = tested on: CAKI-1

Cc1ccccc1C(=O)Oc1ccc(OCc2ccccc2)cc1
GI50 (SF-295): > 100 µM (inactive) | GI50 (SF-268): > 100 µM (inactive) | GI50 (SF-539): > 100 µM (inactive) | GI50 (SK-OV-3): > 100 µM (inactive) | GI50 (UACC-62): 83.8 µM (inactive) | GI50 (M19-MEL): > 100 µM (inactive) | GI50 (OVCAR-3): > 100 µM (inactive) | GI50 (COLO 205): > 100 µM (inactive) | GI50 (NCI-H460): 39.1 µM (inactive) | GI50 (SNB-19): > 100 µM (inactive) | GI50 (SK-MEL-28): > 100 µM (inactive) | GI50 (KM-20L2): 75.5 µM (inactive) | GI50 (IGROV-1): > 100 µM (inactive) | GI50 (A498): 34.5 µM (inactive) | GI50 (HOP-18): > 100 µM (inactive) | GI50 (ACHN): 9.18 µM (inactive) | GI50 (HT-29): 63.8 µM (inactive) | GI50 (TK-10): > 100 µM (inactive) | GI50 (RXF 393): 39.1 µM (inactive) | GI50 (KM12): > 100 µM (inactive) | GI50 (LXFL 529): 87.9 µM (inactive) | GI50 (EKVX): > 100 µM (inactive) | GI50 (SNB-75): > 100 µM (inactive) | GI50 (LOX IMVI): 99.1 µM (inactive) | GI50 (SW-620): > 100 µM (inactive) | GI50 (DLD-1): > 100 µM (inactive) | GI50 (786-0): 51.2 µM (inactive) | GI50 (SR): 19.1 µM (inactive) | GI50 (NCI-H23): 66.8 µM (inactive) | GI50 (HCC 2998): 35.9 µM (inactive) | GI50 (HCT-15): 38.6 µM | GI50 (OVCAR-4): > 100 µM (inactive) | GI50 (UACC-257): 95.7 µM (inactive) | GI50 (XF498): > 100 µM (inactive) | GI50 (HCT-116): 53.5 µM (inactive) | GI50 (UO-31): 37.2 µM (inactive) | GI50 (HL-60): 5.82 µM (inactive) | GI50 (DMS-114): 28.9 µM (inactive) | GI50 (M14): > 100 µM (inactive) | GI50 (SK-MEL-5): 48.6 µM (inactive) | GI50 (OVCAR-5): 45.3 µM (inactive) | GI50 (HOP-92): > 100 µM (inactive) | GI50 (U-251): > 100 µM (inactive) | GI50 (MOLT-4): 9.44 µM (inactive) | GI50 (Malme-3M): > 100 µM (inactive) | GI50 (HOP-62): > 100 µM (inactive) | GI50 (SN12C): 93.8 µM (inactive) | GI50 (CCRF-CEM): 22.2 µM (inactive) | GI50 (RPMI-8226): 25.6 µM (inactive) | GI50 (OVCAR-8): > 100 µM (inactive) | GI50 (SNB-78): > 100 µM (inactive) | GI50 (DMS-273): > 100 µM (inactive) | GI50 (A549): 35.2 µM (inactive) | GI50 (K562): 47.6 µM (inactive)

Clc1ccc(-c2c(C3=NCCN3)nnn2-c2ccccc2)cc1
GI50 (SF-295): > 100 µM (inactive) | GI50 (SF-268): > 100 µM (inactive) | GI50 (SF-539): > 100 µM (inactive) | GI50 (SK-OV-3): > 100 µM (inactive) | GI50 (UACC-62): > 100 µM (inactive) | GI50 (M19-MEL): > 100 µM (inactive) | GI50 (OVCAR-3): > 100 µM (inactive) | GI50 (NCI-H226): > 100 µM (inactive) | GI50 (SK-MEL-2): 51.2 µM (inactive) | GI50 (COLO 205): 40.1 µM (inactive) | GI50 (NCI-H460): > 100 µM (inactive) | GI50 (NCI-H522): > 100 µM (inactive) | GI50 (SNB-19): > 100 µM (inactive) | GI50 (SK-MEL-28): > 100 µM (inactive) | GI50 (KM-20L2): 85.3 µM (inactive) | GI50 (IGROV-1): > 100 µM (inactive) | GI50 (A498): > 100 µM (inactive) | GI50 (HOP-18): > 100 µM (inactive) | GI50 (ACHN): > 100 µM (inactive) | GI50 (HT-29): 68.7 µM (inactive) | GI50 (TK-10): 51.8 µM (inactive) | GI50 (RXF 393): > 100 µM (inactive) | GI50 (KM12): > 100 µM (inactive) | GI50 (LXFL 529): > 100 µM (inactive) | GI50 (EKVX): > 100 µM (inactive) | GI50 (SNB-75): > 100 µM (inactive) | GI50 (LOX IMVI): > 100 µM (inactive) | GI50 (SW-620): > 100 µM (inactive) | GI50 (DLD-1): > 100 µM (inactive) | GI50 (786-0): > 100 µM (inactive) | GI50 (SR): 49.2 µM (inactive) | GI50 (NCI-H23): > 100 µM (inactive) | GI50 (HCC 2998): > 100 µM (inactive) | GI50 (HCT-15): > 100 µM | GI50 (OVCAR-4): > 100 µM (inactive) | GI50 (UACC-257): > 100 µM (inactive) | GI50 (XF498): > 100 µM (inactive) | GI50 (HCT-116): 83.4 µM (inactive) | GI50 (UO-31): 82.4 µM (inactive) | GI50 (HL-60): > 100 µM (inactive) | GI50 (DMS-114): > 100 µM (inactive) | GI50 (M14): > 100 µM (inactive) | GI50 (SK-MEL-5): 97.1 µM (inactive) | GI50 (OVCAR-5): > 100 µM (inactive) | GI50 (HOP-92): 92 µM (inactive) | GI50 (U-251): > 100 µM (inactive) | GI50 (MOLT-4): 80.2 µM (inactive) | GI50 (Malme-3M): > 100 µM (inactive) | GI50 (HOP-62): > 100 µM (inactive) | GI50 (SN12C): > 100 µM (inactive) | GI50 (CCRF-CEM): > 100 µM (inactive) | GI50 (RPMI-8226): > 100 µM (inactive) | GI50 (OVCAR-8): > 100 µM (inactive) | GI50 (SNB-78): > 100 µM (inactive) | GI50 (CAKI-1): > 100 µM (inactive) | GI50 (DMS-273): > 100 µM (inactive) | GI50 (A549): > 100 µM (inactive) | GI50 (K562): 61.1 µM (inactive)
